In PubChem BioAssay AID1053172 (The Scripps Research Institute Molecular Screening Center, 2014):
The source made the active and inactive calls. No rule for the calls is given here.

target: HIV-1 integrase / human LEDGF/p75 complex; experiment: blockers of LEDGF/p75-dependent integrase activity – biochemical, TR-FRET, dose response (AID 1053172); settings: TR-FRET integrase-LEDGF/p75 DNA integration

Structure (SMILES) | IC50
CC(=O)c1ccc2c(c1)C1C=CCC1C(C(=O)O)N2 (stereo unspecified) | 0.575 µM
O=C(O)c1ccc(-n2c(-c3cc(-c4ccco4)[nH]n3)n[nH]c2=S)cc1 | 7.32 µM
O=C(Nc1nc(-c2ccco2)c(-c2ccco2)s1)C1CC(=O)N(c2ccc3c(c2)OCCO3)C1 (stereo unspecified) | inactive
Oc1ccc(/C=N/N=C(c2ccccc2)c2ccccc2)c(O)c1O | 1.08 µM
COc1cc(-c2cc(=O)c3c(O)c(OC)c(OC)c(O)c3o2)ccc1O | 4.96 µM
COc1ccc(NC(=S)Nc2ccc3nsnc3c2)cc1 | inactive
N#Cc1c(NC(=O)CSc2ncnc3sccc23)oc(-c2ccco2)c1-c1ccco1 | inactive
Cc1cc(=O)n2[nH]c(-c3ccsc3-n3c(C)ccc3C)cc2n1 | inactive
Oc1ccc(C=Nc2cccc3ncccc23)c(O)c1 | > 36.5 µM (inactive)
O=C(O)c1cccc2cccc(-c3c4ccc(=O)c(O)c-4oc4c(O)c(O)ccc34)c12 | 0.369 µM
CC1=NN(c2cccc(C(=O)O)c2)C(=O)/C1=C\C=C\c1ccco1 | 0.734 µM
O=c1cc(-c2ccc(O)c(O)c2)oc2cc(O)c(C3OC(CO)C(O)C(O)C3O)c(O)c12 (stereo unspecified) | 1.55 µM
O=c1cc(-c2ccc(O)cc2)oc2cc(O)c(C3OC(CO)C(O)C(O)C3O)c(O)c12 (stereo unspecified) | 5.96 µM
O=C(NN1C(=O)/C(=C/C=C/c2ccco2)SC1=S)c1ccncc1 | 1.2 µM
Cc1cc2nc3ccc(N(C)C)cc3nc2cc1N | > 36.6 µM (inactive)
COc1ccc2[nH]c3c(C)c4cc[n+](C)cc4c(C)c3c2c1 | 5.11 µM
O=S(=O)(c1cc(O)ccc1O)c1cccc2c(S(=O)(=O)c3cc(O)ccc3O)cccc12 | inactive
O=C(CCN1CCN(c2ccccc2)CC1)N/N=C/c1ccc(O)c(O)c1O | 1.02 µM
Cn1cccc1CC(=O)NN=C/C=C\c1ccco1 | > 36.5 µM (inactive)
Cc1nc2ccccc2c(=O)n1/N=C/c1ccc(O)c(O)c1O | 2.45 µM
O=S(=O)(O)c1cc(O)c2cc(Nc3ccccc3)ccc2c1 | 2.73 µM
C/C(=N/NC(=O)c1cc(O)c(O)c(O)c1)c1ccc([N+](=O)[O-])cc1 | 2.12 µM
CC1(C)OC(C)(C)/C(=C/Nc2ccc(O)cc2)C1=O | inactive
O=c1c(O)c(-c2ccc(O)c(O)c2)oc2cc(O)cc(O)c12 | 0.498 µM
COC(=O)c1ccc(C)c(NC(=O)CSc2sc3c(O)cc(=O)[nH]c3c2C#N)c1 | inactive
Oc1ccc(C=Nc2ccc(N3CCOCC3)cc2)c(O)c1 | inactive

Structure (SMILES) | IC50
O=C(O)Cc1c[nH]c2cccc(O)c12 | 7.41 µM
C(=C\c1ccco1)/c1ccc2ccccc2n1 | > 36.5 µM (inactive)
Oc1ccc(NCc2cccc(OCc3ccccc3)c2)cc1 | > 36.5 µM (inactive)
Nc1c(C(=O)NCC2CCCO2)sc2nc3c(c(-c4ccco4)c12)CC/C3=C\c1ccco1 (stereo unspecified) | 1.35 µM
Cc1sc2nc(SCC(=O)c3ccc(O)c(O)c3)n(C)c(=O)c2c1C | 3.63 µM
C=C(C)C(=O)Oc1ccc(N=Nc2ccc(C)cc2)ccc1=O | 3.48 µM
O=C(O)c1ccc(-n2cccc2/C=C2/NC(=O)N(c3cccc(Cl)c3)C2=O)cc1 | 4.25 µM
O=c1cc(-c2ccc(O)c(O)c2)oc2c(C3O[C@H](CO)[C@@H](O)[C@H](O)[C@H]3O)c(O)cc(O)c12 (stereo partly specified) | 1.26 µM
COCCN(CCOC)Cc1c(O)ccc2c1O/C(=C\c1ccco1)C2=O | > 12.2 µM (inactive)
Cc1csc(NC(=O)CSc2sc3c(O)cc(=O)[nH]c3c2C#N)n1 | 9.73 µM
Oc1cccc(/C=N/NC(=S)Nc2cccnc2)c1O | inactive
Cc1c(CC(=O)N2CCN(C(=O)C3COc4ccccc4O3)CC2)c(=O)oc2c(O)c(O)ccc12 (stereo unspecified) | 0.408 µM
O=C(N/N=C/c1cccc(F)c1)c1cc(-c2ccco2)nc2ccccc12 | 3.85 µM
O=[N+]([O-])c1cc(Br)c(O)c(C=Nc2ccc(N3CCOCC3)cc2)c1 | inactive
O=C(O)CC(CCc1ccccc1)OC1OC(CO)C(O)C(O)C1O (stereo unspecified) | 0.62 µM
COc1ccc(N=C2NC(=O)/C(=C\C=C\c3ccco3)S2)cc1 | 8.07 µM
O=C(O)c1ccc(-n2cccc2/C=C2/SC(=O)N(CC(=O)N3CCCC3)C2=O)cc1 | 2.46 µM
O=c1c(-c2c(O)cc(O)c3c(=O)cc(-c4ccc(O)cc4)oc23)c(-c2ccc(O)cc2)oc2cc(O)cc(O)c12 | 4.23 µM
O=C(N/N=C/c1ccc(F)cc1)c1cc(-c2ccco2)nc2ccccc12 | 8.59 µM
Cc1ccc(NC2=CC(=O)C(=O)c3ccccc32)cc1 | 8.86 µM
O=C(N/N=C\C=C\c1ccc([N+](=O)[O-])o1)c1cccs1 | > 36.5 µM (inactive)
O=C(CSc1nc2ccccc2o1)N/N=C/c1ccc(O)c(O)c1 | 1.93 µM
Oc1ccc(/C=N/NC(=S)Nc2cccnc2)cc1O | 4.5 µM
COc1ccc(NC(=O)CSc2sc3c(O)cc(=O)[nH]c3c2C#N)c(OC)c1 | inactive
NC(=O)c1ccc(N=Cc2c(O)n(Cc3ccco3)c(=O)[nH]c2=O)cc1 | inactive
COc1ccc(/C=C/C(=O)N2CCCc3ccccc32)cc1 | > 36.6 µM (inactive)

Structure (SMILES) | IC50
Cc1ccc(/C=C2/C(=O)c3ccc(C(=O)O)cc3C2=O)o1 | 2.28 µM
O=c1c(O)c(-c2ccc(O)c(O)c2)oc2cc(O)ccc12 | 0.378 µM
Cc1cnc(C=NNC(N)=S)c2cccc(N)c12 | inactive
N#C/C(=C\c1cc(O)c(O)c(O)c1)C(N)=O | 9.6 µM
CN(C)c1ccc(O)c2c1CC1CC3[C@@H](N(C)C)C(=O)C(C(N)=O)=C(O)[C@]3(O)C(=O)C1=C2O (stereo partly specified) | 3.74 µM
COCCCNC(=O)/C(C#N)=C/c1ccc(OCC(=O)O)c(OC)c1 | 5.28 µM
O=C(COC(=O)c1c2c(nc3ccccc13)/C(=C\c1ccco1)CC2)NC1CCCC1 | 6.44 µM
O=C(CCN1C(=O)/C(=C/c2ccco2)SC1=S)Nc1ccc(C(=O)O)c(O)c1 | inactive
O=C(CCc1ccc(S(=O)(=O)N2CCOCC2)cc1)N/N=C/c1ccc(O)c(O)c1O | inactive
COC1=CC(=O)C(C2CC(=O)c3c(O)cc(O)cc3O2)=CC1=O (stereo unspecified) | > 36.5 µM (inactive)
CC(=O)Nc1ccc(C(=O)/C=C/c2ccco2)cc1 | 9.78 µM
O=C(O)c1cccc(-n2cccc2/C=C2/NC(=O)N(c3ccc(Cl)cc3)C2=O)c1 | 0.794 µM
O=C(NN1C(=O)/C(=C/C=C/c2ccco2)SC1=S)c1ccccc1O | 1.85 µM
COC(=O)c1cc(O)cc(OC)c1Oc1cc(C)cc(O)c1C(=O)O | 2.59 µM
Cc1ccc(N=C2NC(=O)/C(=C/C=C/c3ccco3)S2)cc1C | 7.35 µM
C=C(C)C(=O)Nc1cccc(C2=NOC3(C2)C[C@@H](C(N)=O)N(C(=O)C(=C)C)C3)c1 (stereo partly specified) | 5.92 µM
CCOc1cccc(N2C(=O)/C(=C/c3ccco3)C(=O)NC2=S)c1 | 1.55 µM
Cc1c(O)cc2c(c1O)C(=O)CC(c1ccc(O)cc1)O2 (stereo unspecified) | 9.39 µM
COc1cc(C)cc(C(=O)O)c1C1=C(O)c2cccc(O)c2C(=O)C1=O | 4.87 µM
Nc1c(C(=O)N/N=C/c2cccnc2)oc2nc(-c3ccco3)cc(-c3ccco3)c12 | > 36.6 µM (inactive)
O=C(O)CC(C(=O)O)N1C(=O)/C(=C/C=C/c2ccco2)SC1=S (stereo unspecified) | 0.377 µM
COc1ccc(/C=N\NC(=O)c2cc(O)c(O)c(O)c2)cc1CN1CCN(c2ccc(F)cc2)CC1 | > 36.5 µM (inactive)
CC(C(=O)O)N1C(=O)/C(=C/C=C/c2ccco2)SC1=S (stereo unspecified) | 0.452 µM
Cc1ccc(/C=C/C(=O)Nc2ccc([N+](=O)[O-])c(NC(=O)/C=C/c3ccc(C)o3)c2)o1 | inactive
